Like-named read-outs stand apart in the source and are kept apart here.

Data set [1] can be described thus: Lymph node visualization (MRT) after interstitial administration of the contrast medium. It is filed as in vivo. The following applies: guinea pigs, 120 minutes after s.c. 10 μmol of Gd/kg, T1-weighted spin echo (TR 400 ms, TE 15 ms). The method, then:
It was possible to confirm the special suitability of the compounds according to the invention in MR imaging studies in guinea pigs. Thus, 120 minutes after subcutaneous administration of 10 μmol/kg of body weight of a perfluorine-containing gadolinium complex (guinea pigs, hind paw, interdigital space) in T^1-weighted spin-echo images (TR 400 ms, TE 15 ms), a clear enhancement of the popliteal lymph nodes (270%) as well as the inguinal lymph nodes (104%) was observed (cf. Image 1).

Data set [2] can be described thus: T1-relaxivity with Minispec pc 20 (20 MHz, 0.47T) at 37° C. in water and human plasma. The data set is classed as physicochemical. The note with it: for T1-relaxivity: 20 MHz; for R^1 [L/mmol * sec] at 0.47 T and 37° C. Plasma / R^1 [L/mmol * sec] at 0.47 T and 37° C. Water: T1-relaxivity, Minispec pc 20 (20 MHz, 0.47 T); for R^1 [L/mmol * sec] at 0.47 T and 37° C. Plasma: in human plasma; for R^1 [L/mmol * sec] at 0.47 T and 37° C. Water: in water. The method, then: The relaxivity of the following compounds was determined with a Minispec pc 20 (20 MHz, 0.47T) at 37° C. in water and human plasma and compared to that of Gd-DTPA-polylysine and Magnevist^(R) as comparison substances.

Data set [3] is described as follows: Elimination of the contrast medium after i.p. administration (retention of metal in liver and remainder of the body). It is filed as in vivo. The following applies: rats, i.p. 100 μmol of total gadolinium/kg, 14 days p.i. The text has this: After administration of a perfluorinated gadolinium complex according to the invention (100 μmol of total gadolinium/kg of body weight) in the intraperitoneal space of rats, the retention of metal in the liver as well as in the remainder of the body was examined 14 days after administration. In this test, fluorine-containing compound 2c) was used. After 14 days p.i., the gadolinium concentration was 0.22% of the administered dose in the liver and 1.1% of the administered dose in the remainder of the body.

For data set [4] the following is noted: rat, in vivo, iv; cited from earlier work.
For data set [5] the following is noted: T1-relaxivity, from Invest. Radiol. 1992, 346, cited from earlier work.
Data set [6] is described as follows: Blood elimination kinetics of contrast media in rats after one-time intravenous administration. The data set is classed as in vivo, rats (Han Wistar, Schering SPF). The note with it: for distribution volume Vss, MEAN / elimination half-life Tβ, MEAN / total clearance CLtot, MEAN: one-time i.v., Dy-DTPA 100 μmol Dy/kg (n=3), Example 1c 50 μmol Gd/kg (n=2), TOPFIT 2.0. The method, then:
The blood elimination kinetics of contrast media was examined in rats (Han Wistar, Schering SPF, ≈250 g of body weight). For this purpose, after one-time intravenous administration (via a caudal vein) of the substances (dose: 50-100 μmol of Me per kg of body weight), the substance concentration in the blood (based on the Gd or Dy content) was determined over a period of up to 300 minutes p.i. with the aid of ICP-AES. The pharmacokinetic parameters: distribution volume (Vss), total clearance (CLtot) and elimination half-life (tβ) were calculated with a special computer program (TOPFIT 2.0; Thomae, Schering, Gödecke), whereby a one- or two-compartment distribution model was used as a basis.
FIG. 1 represents elimination from the blood (in % of the injected dose) of Dy-DTPA (dose: 100 μmol of Dy per kg of body weight, n=3) and of the fluorine compounds of Example 1c according to the invention (dose: 50 μmol of Gd per kg of body weight, n=2) after one-time intravenous administration of substances in rats (Han Wistar, Schering SPF, ≈250 g of body weight).
The Gd and Dy contents in the blood were determined with the aid of ICP-AES.

In the case of `O=C([O-])CN1CCN(CC(=O)[O-])CCN(CC(O)CNC(=O)COCCC(F)(F)C(F)(F)C(F)(F)C(F)(F)C(F)(F)C(F)(F)C(F)(F)C(F)(F)F)CCN(CC(=O)[O-])CC1.[Gd+3]` (stereo not drawn) [Example 2c, Gadolinium complex of 10-[2-hydroxy-4-aza-5-oxo-7-oxa-10,10,11,11,12,12,13,13,14,14,15,15,16,16,17,17,17-heptadecafluoroheptadecyl]-1,4,7-tris(carboxymethyl)-1,4,7,10-tetraazacyclododecane], the “signal in the popliteal and inguinal lymph nodes of the injected side vs non-injected side or precontrast image” value in data set [1] is on record as “strong signal rise”. In data set [2] (human plasma), the T1-relaxivity came to 33 L/mmol/s. In data set [2] (water), this compound showed a T1-relaxivity of 19 L/mmol/s. In data set [2], the “R^1 [L/mmol * sec] at 0.47 T and 37° C. Plasma” value is 33 L/mmol/s; the “R^1 [L/mmol * sec] at 0.47 T and 37° C. Water” value is 19 L/mmol/s. Besides, in data set [3], the “gadolinium concentration in the liver” value is given as 0.22 % of the administered dose and the “gadolinium concentration in the remainder of the body” value is 1.1 % of the administered dose.
Turning to albumin-Gd-DTPA, the “concentration in the liver tissue” value in data set [4] was ~30 % of the dose.
With polylysine-Gd-DTPA, the “R^1 [L/mmol * sec] at 0.47 T and 37° C. Plasma” value in data set [5] (in plasma) is 16.8 L/mmol/s. Moreover, the “R^1 [L/mmol * sec] at 0.47 T and 37° C. Water” value in data set [5] (in water) is 13.1 L/mmol/s.
Take `CCN(CC(=O)NCC(O)CN1CCN(CC(=O)[O-])CCN(CC(=O)[O-])CCN(CC(=O)[O-])CC1)S(=O)(=O)C(F)(F)C(F)(F)C(F)(F)C(F)(F)C(F)(F)C(F)(F)C(F)(F)C(F)(F)F.[Mn+2].[Na+]` (stereo not drawn) [Example 1e, Manganese complex of 10-[2-hydroxy-4-aza-5-oxo-7-aza-7-(perfluorooctylsulfonyl)-nonyl]-1,4,7-tris(carboxymethyl)-1,4,7,10-tetraazacyclododecane (as sodium salt)]: the figures for the T1-relaxivity in data set [2] (human plasma) and in data set [2] (water) were 4.2 L/mmol/s and 2.7 L/mmol/s, respectively.
In data set [2] (human plasma), `O=C([O-])CN1CCN(CC(=O)[O-])CCN(CC(O)COCCC(F)(F)C(F)(F)C(F)(F)C(F)(F)C(F)(F)C(F)(F)C(F)(F)C(F)(F)F)CCN(CC(=O)[O-])CC1.[Gd+3]` (stereo not drawn) [Example 3c, Gadolinium complex of 10-[-2hydroxy-4-oxa-1H,1H,2H,3H,3H,5H,5H,6H,6H-perfluorotetradecyl]-1,4,7-tris(carboxymethyl)-1,4,7,10-tetraazacyclododecane] registered a T1-relaxivity of 27.5 L/mmol/s. In data set [2] (water), this compound returned a T1-relaxivity of 15.2 L/mmol/s. In addition, in data set [2], the “R^1 [L/mmol * sec] at 0.47 T and 37° C. Plasma” value is 27.5 L/mmol/s; the “R^1 [L/mmol * sec] at 0.47 T and 37° C. Water” value was 15.2 L/mmol/s.
For `O=C([O-])CN(CCN(CC(=O)[O-])CC(=O)[O-])CCN(CC(=O)[O-])CC(=O)[O-].[Dy+3].[Na+].[Na+]` [Dy-DTPA, reference compound], in data set [6], the “distribution volume Vss, MEAN” value is 0.17 L/kg; the “elimination half-life Tβ, MEAN” value is reported as 14.98 min; the “total clearance CLtot, MEAN” value stood at 9.27 mL/min/kg.
In data set [2] (human plasma), `CCN(CC(=O)NCC(O)CN1CCN(CC(=O)[O-])CCN(CC(=O)[O-])CCN(CC(=O)[O-])CC1)S(=O)(=O)C(F)(F)C(F)(F)C(F)(F)C(F)(F)C(F)(F)C(F)(F)C(F)(F)C(F)(F)F.[Gd+3]` (stereo not drawn) [Example 1c, Gadolinium Complex of 10-[2-hydroxy-4-aza-5-oxo-7aza-7-(perfluorooctylsulfonyl)-nonyl]-1,4,7-tris(carboxymethyl)-1,4,7,10-tetraazacyclododecane] yielded a T1-relaxivity of 49 L/mmol/s. In data set [2] (water), this compound came in with a T1-relaxivity of 41 L/mmol/s. In data set [2], the “R^1 [L/mmol * sec] at 0.47 T and 37° C. Plasma” value was determined as 49 L/mmol/s; the “R^1 [L/mmol * sec] at 0.47 T and 37° C. Water” value came out at 41 L/mmol/s. Also, in data set [6] (i.v.), the “distribution volume in comparison to Dy-DTPA” value was “smaller distribution volume” and the “elimination from the blood in comparison to Dy-DTPA” value is recorded as “considerably slower elimination from the blood”. For the same compound, in data set [6], the “distribution volume Vss, MEAN” value turned out to be 0.14 L/kg; the “elimination half-life Tβ, MEAN” value came out at 95.01 min; the “total clearance CLtot, MEAN” value came to 1.07 mL/min/kg.
Take `CNC[C@H](O)[C@@H](O)[C@H](O)[C@H](O)CO.CNC[C@H](O)[C@@H](O)[C@H](O)[C@H](O)CO.O=C([O-])CN(CCN(CC(=O)[O-])CC(=O)O)CCN(CC(=O)[O-])CC(=O)O.[Gd+3]` [Magnevist, reference compound]: in data set [2], the “R^1 [L/mmol * sec] at 0.47 T and 37° C. Plasma” value turned out to be 4.8 L/mmol/s; the “R^1 [L/mmol * sec] at 0.47 T and 37° C. Water” value was determined as 3.8 L/mmol/s.

The values above are taken from patent publication US6916461B2, “Metal complexes that contain perfluoroalkyl, process for their production and their use in NMR diagnosis” (Schering AG, priority 1996, dated 2005).
